The values that follow come from patent US20190292167A1, “HETEROAROMATIC COMPOUNDS USEFUL FOR THE TREATMENT OF PROLIFERATIVE DISEASES” (Syros Pharmaceuticals, Inc., priority 2013, published 2019).

Molecules are shown by their SMILES. Where a name gives a salt, the structure may show the parent alone. Read-outs that look alike come from different tables or passages of the source.

In assay [1] the target is T1, CDK7 (Homo sapiens, UniProt P50613).
T1 construct: purchased Life Technologies (Adapta kinase assay service)
T1 sequence (P50613 whole entry): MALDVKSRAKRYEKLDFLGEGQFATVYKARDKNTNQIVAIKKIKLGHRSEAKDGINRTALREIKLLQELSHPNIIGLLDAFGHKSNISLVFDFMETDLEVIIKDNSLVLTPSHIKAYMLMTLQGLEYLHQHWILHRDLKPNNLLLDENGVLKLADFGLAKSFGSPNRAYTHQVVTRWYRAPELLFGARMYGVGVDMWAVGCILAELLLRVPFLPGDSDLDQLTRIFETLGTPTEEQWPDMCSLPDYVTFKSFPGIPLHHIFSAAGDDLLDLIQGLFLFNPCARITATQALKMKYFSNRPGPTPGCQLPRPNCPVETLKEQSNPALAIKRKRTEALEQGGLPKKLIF
T1 sequence (P51946 whole entry partner): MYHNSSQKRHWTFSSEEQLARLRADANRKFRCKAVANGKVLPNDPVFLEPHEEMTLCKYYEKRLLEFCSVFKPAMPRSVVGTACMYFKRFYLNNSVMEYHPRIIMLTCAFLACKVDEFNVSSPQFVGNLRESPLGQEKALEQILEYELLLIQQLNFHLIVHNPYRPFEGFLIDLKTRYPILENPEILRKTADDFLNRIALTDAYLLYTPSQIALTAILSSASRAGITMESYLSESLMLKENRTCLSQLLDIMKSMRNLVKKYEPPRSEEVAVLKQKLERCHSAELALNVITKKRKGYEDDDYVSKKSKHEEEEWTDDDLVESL
T1 sequence (P51948 whole entry partner): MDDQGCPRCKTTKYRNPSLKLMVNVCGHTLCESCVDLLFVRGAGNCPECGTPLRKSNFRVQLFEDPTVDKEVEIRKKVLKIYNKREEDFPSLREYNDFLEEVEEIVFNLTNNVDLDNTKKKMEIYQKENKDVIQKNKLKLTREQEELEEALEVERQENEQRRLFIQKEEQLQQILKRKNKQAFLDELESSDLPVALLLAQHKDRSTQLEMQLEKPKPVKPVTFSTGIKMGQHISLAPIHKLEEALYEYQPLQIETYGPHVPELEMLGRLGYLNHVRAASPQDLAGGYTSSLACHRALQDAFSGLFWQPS
Kind of assay: Adapta kinase assay (Life Technologies) against CDK7, co-factors cyclin H and MNAT1. Format: biochemical. Particulars: read-out: CDK7 Inhibition. On the procedure:
Compounds of the invention were assayed for activity against CDK7 at Life Technologies™ (Grand Island, N.Y.) using their commercially available Adapta® kinase assay services. […] Details of the assay, including the substrate used for CDK7 kinase, are available on the Life Technologies web site (http://www.lifetechnologies.com/us/en/homellife-science/drug-discovery/target-and-lead-identification-and-validation/kinasebiology/kinase-activity-assays.html).
The co-factors used for the assay were cyclin H and MNAT1.

Assay [2] relates to Jurkat. Kind of assay: Inhibition of cell proliferation, CellTiter-Glo, 72 hour. Format: cell-based. Particulars: Blood cancer cell line, 72 hour, read-out: Inhibition of Proliferation of Jurkat Cells. Here is the method:
The following cancer cell lines were tested with the media conditions indicated: […]

Take `CN(C)C/C=C/C(=O)Nc1ccc(C(=O)N2CCC(Nc3ncc(Cl)c(-c4c[nH]c5ccccc45)n3)CC2)cc1F` [Compound 112, (E)-N-(4-(4-(5-chloro-4-(1H-indol-3-yl)pyrimidin-2-ylamino)piperidine-1-carbonyl)-2-fluorophenyl)-4-(dimethylamino)but-2-enamide]: the IC50 in assay [1] was under 100 nM; in assay [2] (Homo sapiens, Jurkat, 72 h), under 500 nM.

Consider `CN(C)C/C=C/C(=O)Nc1ccc(C(=O)N[C@@H]2CC[C@H](Nc3ncc(Cl)c(-c4c[nH]c5ccccc45)n3)C2)cc1` (racemic) [Compound 120, N-((1R,3S)-3-((5-chloro-4-(1H-indol-3-yl)pyrimidin-2-yl)amino)cyclopentyl)-4-((E)-4-(dimethylamino)but-2-enamido)benzamide and N-((1S,3R)-3-((5-chloro-4-(1H-indol-3-yl)pyrimidin-2-yl)amino)cyclopentyl)-4-((E)-4-(dimethylamino)but-2-enamido)benzamide], for which the IC50 in assay [1] is 100 to 1000 nM; in assay [2] (Homo sapiens, Jurkat, 72 h), under 500 nM.

Regarding `C=CC(=O)Nc1ccc(CNC(=O)[C@H]2C[C@H](Nc3ncc(Cl)c(-c4c[nH]c5ccccc45)n3)CN(C)C2)cc1` (relative stereo) [Compound 155, (+/−trans)-N-(4-acrylamidobenzyl)-5-((5-chloro-4-(1H-indol-3-yl)pyrimidin-2-yl)amino)-1-methylpiperidine-3-carboxamide], the IC50 in assay [1] lay in the range of 100 to 1000 nM; in assay [2], 500 to 5000 nM.

For `N#Cc1cnc(N[C@@H]2CCN(C(=O)c3ccc(NC(=O)/C=C/CN4CCOCC4)cc3)C2)nc1-c1c[nH]c2ccccc12` [Compound 107, (E)-N-(4-((R)-3-(5-cyano-4-(1H-indol-3-yl)pyrimidin-2-ylamino)pyrrolidine-1-carbonyl)phenyl)-4-morpholinobut-2-enamide], the IC50 was under 100 nM in assay [1] and under 500 nM in assay [2] (Homo sapiens, Jurkat, 72 h).

Turning to `CN(C)C/C=C/C(=O)Nc1ccc(C(=O)N2[C@@H]3CC[C@H]2C[C@@H](Nc2ncc(Cl)c(-c4c[nH]c5ccccc45)n2)C3)cc1` [Compound 116, ((1R,3R,5S)-3-(5-chloro-4-(1H-indol-3-yl)pyrimidin-2-ylamino)-8-aza-bicyclo[3.2.1]octan-8-yl)(4-((E)-N-4-(dimethylamino)but-2-enamide)phenyl)methanone], the IC50 in assay [1] lay within 100 to 1000 nM; in assay [2] (Homo sapiens, Jurkat, 72 h) it was 500 to 5000 nM.

With `CN(C)C/C=C/C(=O)Nc1ccc(C(=O)N2CCC(Nc3ncc(Cl)c(-c4cc[nH]n4)n3)CC2)cc1` [Compound 117, (E)-N-(4-(4-((5-chloro-4-(1H-pyrazol-3-yl)pyrimidin-2-yl)amino)piperidine-1-carbonyl)phenyl)-4-(dimethylamino)but-2-enamide], the IC50 was over 1000 nM in assay [1] and over 5000 nM in assay [2] (Homo sapiens, Jurkat, 72 h).

As for `CNC/C=C/C(=O)Nc1ccc(CN2CCC(Nc3ncc(Cl)c(-c4c[nH]c5ccccc45)n3)CC2)cc1` [Compound 142, (E)-N-[4-[[4-[[5-chloro-4-(1H-indol-3-yl)pyrimidin-2-yl]amino]-1-piperidyl]methyl]phenyl]-4-(methylamino)but-2-enamide], the IC50 is under 100 nM in assay [1] and under 500 nM in assay [2] (Homo sapiens, Jurkat, 72 h).

For `Cc1cc(C(=O)N2CCC(Nc3ncc(Cl)c(-c4c[nH]c5ccccc45)n3)CC2)ccc1NC(=O)/C=C/CN(C)C` [Compound 113, (E)-N-(4-(4-(5-chloro-4-(1H-indol-3-yl)pyrimidin-2-ylamino)piperidine-1-carbonyl)-2-methylphenyl)-4-(dimethylamino)but-2-enamide], the IC50 in assay [1] was under 100 nM; in assay [2] (Homo sapiens, Jurkat, 72 h) it was under 500 nM.

For `C=CC(=O)Nc1ccc(NC(=O)C2CNCC(Nc3ncc(Cl)c(-c4c[nH]c5ccccc45)n3)C2)cc1` (racemic) [Compound 153, (+/−cis)-N-(4-acrylamidophenyl)-5-((5-chloro-4-(1H-indol-3-yl)pyrimidin-2-yl)amino)piperidine-3-carboxamide], the IC50 in assay [1] was under 100 nM; in assay [2] (Homo sapiens, Jurkat, 72 h) it was under 500 nM.

With `Nc1ccc(C(=O)N2CCC(Nc3ncc(Cl)c(-c4c[nH]c5ccccc45)n3)CC2)c(F)c1` [Compound 67, (4-amino-2-fluorophenyl)(4-(5-chloro-4-(1H-indol-3-yl)pyrimidin-2-ylamino)piperidin-1-yl)methanone], the IC50 in assay [1] is 100 to 1000 nM; in assay [2] (Homo sapiens, Jurkat, 72 h) it was 500 to 5000 nM.

Consider `CN(C)C/C=C/C(=O)Nc1ccc(C(=O)N2CCC(Nc3ncc(Cl)c(-c4c[nH]c5ccccc45)n3)CC2)c(F)c1` [Compound 115, (E)-N-(4-(4-(5-chloro-4-(1H-indol-3-yl)pyrimidin-2-ylamino)piperidine-1-carbonyl)-3-fluorophenyl)-4-(dimethylamino)but-2-enamide], for which the IC50 is under 100 nM in assay [1] and under 500 nM in assay [2] (Homo sapiens, Jurkat, 72 h).

Regarding `Cc1cc(NC(=O)/C=C/CN(C)C)ccc1C(=O)N1CCC(Nc2ncc(Cl)c(-c3c[nH]c4ccccc34)n2)CC1` [Compound 114, (E)-N-(4-(4-(5-chloro-4-(1H-indol-3-yl)pyrimidin-2-ylamino)piperidine-1-carbonyl)-3-methylphenyl)-4-(dimethylamino)but-2-enamide], the IC50 in assay [1] is under 100 nM; in assay [2] (Homo sapiens, Jurkat, 72 h), under 500 nM.

On to `Cc1nc(C)c(-c2nc(N[C@H]3CC[C@@H](NC(=O)c4ccc(NC(=O)/C=C/CN(C)C)cc4)C3)ncc2Cl)s1` (racemic) [Compound 128, N-((1R,3S)-3-((5-chloro-4-(2,4-dimethylthiazol-5-yl)pyrimidin-2-yl)amino)cyclopentyl)-4-((E)-4-(dimethylamino)but-2-enamido)benzamide and N-((1S,3R)-3-((5-chloro-4-(2,4-dimethylthiazol-5-yl)pyrimidin-2-yl)amino)cyclopentyl)-4-((E)-4-(dimethylamino)but-2-enamido)benzamide], for which the IC50 in assay [1] was 100 to 1000 nM; in assay [2] (Homo sapiens, Jurkat, 72 h) it was 500 to 5000 nM.

On to `Cc1cc(N)ccc1C(=O)N1CCC(Nc2ncc(Cl)c(-c3c[nH]c4ccccc34)n2)CC1` [Compound 63, (4-amino-2-methylphenyl)(4-(5-chloro-4-(1H-indol-3-yl)pyrimidin-2-ylamino)piperidin-1-yl)methanone], for which the IC50 in assay [1] is 100 to 1000 nM; in assay [2] (Homo sapiens, Jurkat, 72 h), over 5000 nM.

On to `Nc1ccc(S(=O)(=O)N2CC[C@@H](Nc3ncc(Cl)c(-c4c[nH]c5ccccc45)n3)C2)cc1` [Compound 32, N—((R)-1-(4-aminophenylsulfonyl)pyrrolidin-3-yl)-5-chloro-4-(1H-indol-3-yl)pyrimidin-2-amine], for which the IC50 is under 100 nM in assay [1] and over 5000 nM in assay [2] (Homo sapiens, Jurkat, 72 h).

As for `Cc1[nH]c2ccccc2c1-c1nc(NC2CCN(C(=O)c3ccc(NC(=O)/C=C/CN(C)C)cc3)CC2)ncc1Cl` [Compound 125, (E)-N-(4-(4-((5-chloro-4-(2-methyl-1H-indol-3-yl)pyrimidin-2-yl)amino)piperidine-1-carbonyl)phenyl)-4-(dimethylamino)but-2-enamide], the IC50 in assay [1] is under 100 nM; in assay [2] (Homo sapiens, Jurkat, 72 h), under 500 nM.

For `CN(C/C=C/C(=O)Nc1ccc(C(=O)N2CC[C@@H](Nc3ncc(C#N)c(-c4c[nH]c5ccccc45)n3)C2)cc1)CCO` [Compound 111, (E)-N-(4-((R)-3-(5-cyano-4-(1H-indol-3-yl)pyrimidin-2-ylamino)pyrrolidine-1-carbonyl)phenyl)-4-((2-hydroxyethyl)(methyl)amino)but-2-enamide], the IC50 was under 100 nM in assay [1] and under 500 nM in assay [2] (Homo sapiens, Jurkat, 72 h).

Take `CN(C)C/C=C/C(=O)N(C)c1cccc(CN2CCC(Nc3ncc(Cl)c(-c4c[nH]c5ccccc45)n3)CC2)c1` [Compound 145, (E)-N-[3-[[4-[[5-chloro-4-(1H-indol-3-yl)pyrimidin-2-yl]amino]-1-piperidyl]methyl]phenyl]-4-(dimethylamino)-N-methyl-but-2-enamide]: the IC50 is under 100 nM in assay [1] and under 500 nM in assay [2] (Homo sapiens, Jurkat, 72 h).

Consider `Nc1ccc(C(=O)N2CC[C@H](Nc3ncc(Cl)c(-c4c[nH]c5ccccc45)n3)C2)cc1` [Compound 24, (4-aminophenyl)((S)-3-(5-chloro-4-(1H-indol-3-yl)pyrimidin-2-ylamino)pyrrolidin-1-yl)methanone], for which the IC50 in assay [1] was 100 to 1000 nM; in assay [2] (Homo sapiens, Jurkat, 72 h) it was over 5000 nM.

On to `CN(C)C/C=C/C(=O)NCCC(=O)Nc1cccc(Nc2ncc(Cl)c(-c3c[nH]c4ccccc34)n2)c1` [Compound 131, (E)-N-(3-(3-(5-chloro-4-(1H-indol-3-yl)pyrimidin-2-ylamino)phenylamino)-3-oxopropyl)-4-(dimethylamino)but-2-enamide], for which the IC50 in assay [1] fell in the range of 100 to 1000 nM; in assay [2] (Homo sapiens, Jurkat, 72 h), 500 to 5000 nM.

Turning to `NCCC(=O)Nc1cccc(Nc2ncc(Cl)c(-c3c[nH]c4ccccc34)n2)c1` [Compound 306, 3-amino-N-(3-(5-chloro-4-(1H-indol-3-yl)pyrimidin-2-ylamino)phenyl) propanamide.TFA], the IC50 in assay [1] was under 100 nM; in assay [2] (Homo sapiens, Jurkat, 72 h), 500 to 5000 nM.

Regarding `C=CC(=O)Nc1ccc(CNC(=O)[C@H]2CNCC(Nc3ncc(Cl)c(-c4c[nH]c5ccccc45)n3)C2)cc1` (mixture of isomers) [Compound 151, (+/−trans)-N-(4-acrylamidobenzyl)-5-((5-chloro-4-(1H-indol-3-yl)pyrimidin-2-yl)amino)piperidine-3-carboxamide], the IC50 is under 100 nM in assay [1] and under 500 nM in assay [2] (Homo sapiens, Jurkat, 72 h).

With `C=CC(=O)Nc1ccc(C(=O)NC2CC3(C2)CC(Nc2ncc(Cl)c(-c4c[nH]c5ccccc45)n2)C3)cc1` (stereo not drawn) [Compound 138, 4-acrylamido-N-(6-((5-chloro-4-(1H-indol-3-yl)pyrimidin-2-yl)amino)spiro[3.3]heptan-2-yl)benzamide], the IC50 was 100 to 1000 nM in assay [1] and 500 to 5000 nM in assay [2] (Homo sapiens, Jurkat, 72 h).

On to `Nc1ccc(CN2CCC(Nc3ncc(Cl)c(-c4c[nH]c5ccccc45)n3)CC2)cc1` [Compound 48, N-(1-(4-aminobenzyl)piperidin-4-yl)-5-chloro-4-(1H-indol-3-yl)pyrimidin-2-amine.HCl], for which the IC50 was in the range of 100 to 1000 nM in assay [1] and 500 to 5000 nM in assay [2] (Homo sapiens, Jurkat, 72 h).
